From ChEMBL document CHEMBL6121027, “Novel Bicyclic Heterocyclic Compounds as CD73 Inhibitors for Treating Cancer” (ACS Med Chem Lett, 2025)

biological target: 5'-nucleotidase (Homo sapiens, UniProt P21589); test: Inhibition of recombinant human CD73 preincubated for 15 mins followed by AMP addition measured after 10 mins by LC/MS analysis
Sequence (P21589 whole entry): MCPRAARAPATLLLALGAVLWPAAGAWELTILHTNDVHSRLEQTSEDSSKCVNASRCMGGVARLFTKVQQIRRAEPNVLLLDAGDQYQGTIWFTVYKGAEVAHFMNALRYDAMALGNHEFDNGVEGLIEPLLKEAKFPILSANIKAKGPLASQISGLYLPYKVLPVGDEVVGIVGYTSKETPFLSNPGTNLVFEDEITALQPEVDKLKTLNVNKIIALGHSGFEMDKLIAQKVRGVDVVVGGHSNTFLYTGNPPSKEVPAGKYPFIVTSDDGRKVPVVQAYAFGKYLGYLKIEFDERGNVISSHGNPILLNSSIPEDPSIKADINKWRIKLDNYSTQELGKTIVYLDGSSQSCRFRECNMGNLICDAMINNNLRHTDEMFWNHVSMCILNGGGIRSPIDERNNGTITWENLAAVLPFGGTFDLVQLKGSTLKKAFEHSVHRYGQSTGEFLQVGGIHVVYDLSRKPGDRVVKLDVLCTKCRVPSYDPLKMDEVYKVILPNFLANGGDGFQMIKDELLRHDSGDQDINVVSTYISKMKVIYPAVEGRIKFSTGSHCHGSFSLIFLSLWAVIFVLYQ

IC50	SMILES
0.04 nM	Cn1nc(O[C@H](c2ccnc(OCC(C)(F)F)c2)C(F)F)c2cc(-c3n[nH]c(=O)[nH]c3=O)nnc21
0.04 nM	C[C@H](Nc1cc([C@@H](Oc2nn(C)c3nnc(-c4n[nH]c(=O)[nH]c4=O)cc23)C(F)F)ccn1)C(F)(F)F
0.04 nM	C[C@@H](Nc1cc([C@@H](Oc2nn(C)c3nnc(-c4n[nH]c(=O)[nH]c4=O)cc23)C(F)F)ccn1)C(F)(F)F
0.05 nM	COCCOc1cc([C@@H](Oc2nn(C)c3nnc(-c4n[nH]c(=O)[nH]c4=O)cc23)C(F)F)ccn1
